Reference: US20250353891A1 (MEDIMMUNE LIMITED, priority 2022, published 2025)
Starred links: 1 amine or outer side, 2 acyl side, 3 side chain; linkers in the order of their positions; H or OH if unused. Non-standard residues stand in square brackets, D forms with d. Residues, ends and D or L forms follow the SMILES beside them. Groups on a side chain read outwards from the residue. *: point of attachment. C20 diacid = O=C(O)CCCCCCCCCCCCCCCCCCC(=O)*; C18 diacid = O=C(O)CCCCCCCCCCCCCCCCC(=O)*; γGlu = O=C(O)[C@H](CCC(=O)[*:2])N[*:1]; αMeF = C[C@](N)(Cc1ccccc1)C(=O)O; AEEA = NCCOCCOCC(=O)O; Aib = CC(C)(N)C(=O)O

Experiments:
[1] = biological target: human GLP-1 receptor (hGLP-1R) (Homo sapiens, UniProt P43220); test: cAMP production (HTRF) in CHO cells expressing hGLP-1R; format: cell-based; design: expressed in transfected cells; details: for EC50: Table 6, peptides modified at position 17, cAMP in CHO hGLP-1R cells, geometric mean, read-out: hGLP-1R EC50; for % Relative Potency Ratio: Table 6, % GLP-1R activity relative to GLP-1 / % GlucR activity relative to glucagon
human GLP-1 receptor (hGLP-1R), sequence (P43220 24-463): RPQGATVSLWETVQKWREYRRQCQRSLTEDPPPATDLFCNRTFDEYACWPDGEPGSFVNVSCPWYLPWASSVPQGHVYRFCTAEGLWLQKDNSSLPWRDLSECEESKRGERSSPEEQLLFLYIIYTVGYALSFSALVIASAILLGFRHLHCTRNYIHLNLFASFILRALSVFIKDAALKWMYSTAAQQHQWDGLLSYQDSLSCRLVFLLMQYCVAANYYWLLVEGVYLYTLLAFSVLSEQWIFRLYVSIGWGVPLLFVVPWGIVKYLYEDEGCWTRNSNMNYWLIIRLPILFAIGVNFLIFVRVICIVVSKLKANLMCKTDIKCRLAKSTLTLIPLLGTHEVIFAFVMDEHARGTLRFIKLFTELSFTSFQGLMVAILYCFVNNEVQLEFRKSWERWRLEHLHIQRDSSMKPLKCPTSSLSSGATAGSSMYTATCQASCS
Summary of the method: (§1)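 Read-out: HTRF cAMP (anti-cAMP cryptate donor, cAMP-d2 acceptor in conjugate/lysis buffer), converted to % Delta F and fitted by 4-parameter logistic for EC50. Cell densities were 1×10^5 cells/mL (hGLP-1R) or 2×10^5 cells/mL (hGCGR). Stimulation lasted 30 min at room temperature.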

[2] = biological target: human glucagon receptor (hGCGR) (Homo sapiens, UniProt P47871); test: cAMP production (HTRF) in CHO cells expressing hGCGR; format: cell-based; design: expressed in transfected cells; details: Table 6, peptides modified at position 17; cAMP in CHO hGCGR cells; geometric mean; read-out: hGluc-R EC50
human glucagon receptor (hGCGR), sequence (P47871 26-477): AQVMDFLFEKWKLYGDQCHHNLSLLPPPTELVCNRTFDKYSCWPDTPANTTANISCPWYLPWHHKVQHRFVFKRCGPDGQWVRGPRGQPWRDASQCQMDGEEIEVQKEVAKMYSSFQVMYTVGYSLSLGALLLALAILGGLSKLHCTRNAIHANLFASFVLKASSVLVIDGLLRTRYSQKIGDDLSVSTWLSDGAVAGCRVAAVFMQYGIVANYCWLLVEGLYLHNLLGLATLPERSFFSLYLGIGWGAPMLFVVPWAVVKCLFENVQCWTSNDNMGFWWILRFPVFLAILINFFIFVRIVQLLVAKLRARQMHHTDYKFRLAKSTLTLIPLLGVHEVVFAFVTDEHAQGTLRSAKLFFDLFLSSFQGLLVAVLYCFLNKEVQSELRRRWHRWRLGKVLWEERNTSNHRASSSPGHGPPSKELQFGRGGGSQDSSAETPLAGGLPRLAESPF
Summary of the method: as §1

Row | Structure (SMILES) | EC50 [1] [nM] | % Relative Potency Ratio [1] | EC50 [2] [nM]
1 | CC[C@H](C)[C@H](NC(=O)C(C)(C)NC(=O)[C@H](CCC(N)=O)NC(=O)[C@@H](NC(=O)[C@](C)(Cc1ccccc1)NC(=O)[C@H](CC(=O)O)NC(=O)[C@H](CCCNC(=N)N)NC(=O)[C@H](C)NC(=O)[C@H](C)NC(=O)[C@H](CCCCNC(=O)COCCOCCNC(=O)COCCOCCNC(=O)CC[C@H](NC(=O)CC[C@H](NC(=O)CCCCCCCCCCCCCCCCC(=O)O)C(=O)O)C(=O)O)NC(=O)[C@H](CO)NC(=O)[C@H](CC(=O)O)NC(=O)[C@H](CC(C)C)NC(=O)[C@](C)(Cc1ccccc1)NC(=O)[C@H](CCCCN)NC(=O)[C@H](CO)NC(=O)[C@@H](NC(=O)[C@H](CC(=O)O)NC(=O)[C@H](CO)NC(=O)[C@@H](NC(=O)[C@](C)(Cc1ccccc1)NC(=O)[C@H](CO)NC(=O)CNC(=O)[C@H](Cc1c[nH]cn1)NC(=O)C(C)(C)NC(=O)[C@@H](N)Cc1c[nH]cn1)[C@@H](C)O)C(C)C)C(C)C)C(=O)N[C@@H](C)C(=O)N[C@@H](CC(N)=O)C(=O)N[C@H](C(N)=O)[C@@H](C)O [Peptide 19] (H-H[Aib]HGS[αMeF]TSDVSK[αMeF]LDSK([AEEA-AEEA-γGlu-γGlu-C18 diacid])AARD[αMeF]VQ[Aib]IANT-NH2; N-terminus assumed) | 0.0383 | 6.9 | 0.133
2 | CC[C@H](C)[C@H](NC(=O)C(C)(C)NC(=O)[C@H](CCC(=O)O)NC(=O)[C@@H](NC(=O)[C@](C)(Cc1ccccc1)NC(=O)[C@H](CC(=O)O)NC(=O)[C@H](CCCNC(=N)N)NC(=O)[C@H](C)NC(=O)[C@H](C)NC(=O)[C@H](CCCCNC(=O)COCCOCCNC(=O)COCCOCCNC(=O)CC[C@H](NC(=O)CC[C@H](NC(=O)CCCCCCCCCCCCCCCCC(=O)O)C(=O)O)C(=O)O)NC(=O)[C@H](CO)NC(=O)[C@H](CC(=O)O)NC(=O)[C@H](CC(C)C)NC(=O)[C@](C)(Cc1ccccc1)NC(=O)[C@H](CCCCN)NC(=O)[C@H](CO)NC(=O)[C@@H](NC(=O)[C@H](CC(=O)O)NC(=O)[C@H](CO)NC(=O)[C@@H](NC(=O)[C@](C)(Cc1ccccc1)NC(=O)[C@H](CO)NC(=O)CNC(=O)[C@H](Cc1c[nH]cn1)NC(=O)C(C)(C)NC(=O)[C@@H](N)Cc1c[nH]cn1)[C@@H](C)O)C(C)C)C(C)C)C(=O)N[C@@H](C)C(=O)N[C@@H](CC(N)=O)C(=O)N[C@H](C(N)=O)[C@@H](C)O [Peptide 20] (H-H[Aib]HGS[αMeF]TSDVSK[αMeF]LDSK([AEEA-AEEA-γGlu-γGlu-C18 diacid])AARD[αMeF]VE[Aib]IANT-NH2; N-terminus assumed) | 0.152 | 1.8 | 0.136
3 | CC[C@H](C)[C@H](NC(=O)[C@H](CO)NC(=O)[C@H](CCC(=O)O)NC(=O)[C@@H](NC(=O)[C@](C)(Cc1ccccc1)NC(=O)[C@H](CC(=O)O)NC(=O)[C@H](CCC(N)=O)NC(=O)[C@H](C)NC(=O)[C@H](C)NC(=O)[C@H](CCCCNC(=O)CC[C@H](NC(=O)CCCCCCCCCCCCCCCCC(=O)O)C(=O)O)NC(=O)[C@H](CO)NC(=O)[C@H](CC(=O)O)NC(=O)[C@H](CC(C)C)NC(=O)[C@](C)(Cc1ccccc1)NC(=O)[C@H](CCCCN)NC(=O)[C@H](CO)NC(=O)[C@@H](NC(=O)[C@H](CC(=O)O)NC(=O)[C@H](CO)NC(=O)[C@@H](NC(=O)[C@](C)(Cc1ccccc1)NC(=O)[C@H](CO)NC(=O)CNC(=O)[C@H](Cc1c[nH]cn1)NC(=O)C(C)(C)NC(=O)[C@@H](N)Cc1c[nH]cn1)[C@@H](C)O)C(C)C)C(C)C)C(=O)N[C@@H](C)C(=O)N[C@@H](CC(N)=O)C(=O)N[C@H](C(N)=O)[C@@H](C)O [Peptide 21] (H-H[Aib]HGS[αMeF]TSDVSK[αMeF]LDSK([γGlu-C18 diacid])AAQD[αMeF]VESIANT-NH2; N-terminus assumed) | 0.378 | 0.4 | 0.0688
4 | CC[C@H](C)[C@H](NC(=O)[C@H](CO)NC(=O)[C@H](CCC(=O)O)NC(=O)[C@@H](NC(=O)[C@](C)(Cc1ccccc1)NC(=O)[C@H](CC(=O)O)NC(=O)[C@H](CCC(N)=O)NC(=O)[C@H](C)NC(=O)[C@H](C)NC(=O)[C@H](CCCCNC(=O)COCCOCCNC(=O)COCCOCCNC(=O)CC[C@H](NC(=O)CC[C@H](NC(=O)CCCCCCCCCCCCCCCCCCC(=O)O)C(=O)O)C(=O)O)NC(=O)[C@H](CO)NC(=O)[C@H](CC(=O)O)NC(=O)[C@H](CC(C)C)NC(=O)[C@](C)(Cc1ccccc1)NC(=O)[C@H](CCCCN)NC(=O)[C@H](CO)NC(=O)[C@@H](NC(=O)[C@H](CC(=O)O)NC(=O)[C@H](CO)NC(=O)[C@@H](NC(=O)[C@](C)(Cc1ccccc1)NC(=O)[C@H](CO)NC(=O)CNC(=O)[C@H](Cc1c[nH]cn1)NC(=O)C(C)(C)NC(=O)[C@@H](N)Cc1c[nH]cn1)[C@@H](C)O)C(C)C)C(C)C)C(=O)N[C@@H](C)C(=O)N[C@@H](CC(N)=O)C(=O)N[C@H](C(N)=O)[C@@H](C)O [Peptide 22] (H-H[Aib]HGS[αMeF]TSDVSK[αMeF]LDSK([AEEA-AEEA-γGlu-γGlu-C20 diacid])AAQD[αMeF]VESIANT-NH2; N-terminus assumed) | 1.23 | 4.4 | 2.72
5 | CC[C@H](C)[C@H](NC(=O)[C@H](CO)NC(=O)[C@H](CCC(=O)O)NC(=O)[C@@H](NC(=O)[C@](C)(Cc1ccccc1)NC(=O)[C@H](CC(=O)O)NC(=O)[C@H](CCC(N)=O)NC(=O)[C@H](C)NC(=O)[C@H](C)NC(=O)[C@H](CCCCNC(=O)COCCOCCNC(=O)COCCOCCNC(=O)CC[C@H](NC(=O)CCCCCCCCCCCCCCCCC(=O)O)C(=O)O)NC(=O)[C@H](CO)NC(=O)[C@H](CC(=O)O)NC(=O)[C@H](CC(C)C)NC(=O)[C@](C)(Cc1ccccc1)NC(=O)[C@H](CCCCN)NC(=O)[C@H](CO)NC(=O)[C@@H](NC(=O)[C@H](CC(=O)O)NC(=O)[C@H](CO)NC(=O)[C@@H](NC(=O)[C@](C)(Cc1ccccc1)NC(=O)[C@H](CO)NC(=O)CNC(=O)[C@H](Cc1c[nH]cn1)NC(=O)C(C)(C)NC(=O)[C@@H](N)Cc1c[nH]cn1)[C@@H](C)O)C(C)C)C(C)C)C(=O)N[C@@H](C)C(=O)N[C@@H](CC(N)=O)C(=O)N[C@H](C(N)=O)[C@@H](C)O [Peptide 23] (H-H[Aib]HGS[αMeF]TSDVSK[αMeF]LDSK([AEEA-AEEA-γGlu-C18 diacid])AAQD[αMeF]VESIANT-NH2; N-terminus assumed) | 0.266 | 2.4 | 0.321
6 | CC[C@H](C)[C@H](NC(=O)C(C)(C)NC(=O)[C@H](CCC(N)=O)NC(=O)[C@@H](NC(=O)[C@](C)(Cc1ccccc1)NC(=O)[C@H](CC(=O)O)NC(=O)[C@H](CCC(N)=O)NC(=O)[C@H](C)NC(=O)[C@H](C)NC(=O)[C@H](CCCCNC(=O)COCCOCCNC(=O)COCCOCCNC(=O)CC[C@H](NC(=O)CCCCCCCCCCCCCCCCC(=O)O)C(=O)O)NC(=O)[C@H](CO)NC(=O)[C@H](CC(=O)O)NC(=O)[C@H](CC(C)C)NC(=O)[C@](C)(Cc1ccccc1)NC(=O)[C@H](CCCCN)NC(=O)[C@H](CO)NC(=O)[C@@H](NC(=O)[C@H](CC(=O)O)NC(=O)[C@H](CO)NC(=O)[C@@H](NC(=O)[C@](C)(Cc1ccccc1)NC(=O)[C@H](CO)NC(=O)CNC(=O)[C@H](Cc1c[nH]cn1)NC(=O)C(C)(C)NC(=O)[C@@H](N)Cc1c[nH]cn1)[C@@H](C)O)C(C)C)C(C)C)C(=O)N[C@@H](C)C(=O)N[C@@H](CC(N)=O)C(=O)N[C@H](C(N)=O)[C@@H](C)O [Peptide 24] (H-H[Aib]HGS[αMeF]TSDVSK[αMeF]LDSK([AEEA-AEEA-γGlu-C18 diacid])AAQD[αMeF]VQ[Aib]IANT-NH2; N-terminus assumed) | 0.0828 | 2.4 | 0.101
